Drawing on patent US9029405B2, “5-(biphenyl-4-yl)-3-phenyl-1,2,4-oxadiazolyl derivatives as ligands on the sphingosine 1-phosphate(SIP)receptors” (Merck Serono S.A., priority 2010, dated 2015), this text covers Ki and EC50 for 17 compounds.

The target of assay [1] is T1, S1P1 (Homo sapiens, UniProt P21453). The assay can be described thus: Receptor binding assay, [33P]sphingosine 1-phosphate competition, membranes of CHO cells expressing S1P1. How it is done:
(§1) Membranes were prepared from CHO cells expressing S1P1 or S1P3 for use in ligand binding studies. Cells were suspended in 50 mM TRIS, pH 7.4, 2 mM EDTA, 250 mM Sucrose (buffer A) and 1× Complete protease inhibitor cocktail (Roche), and disrupted at 4° C. by N2 decompression using a cell disruption bomb (Parr Instrument). Following centrifugation at 1000 RPM for 10 min at 4° C., the supernatant was diluted (2×) in buffer A and centrifuged again at 19000 RPM for 75 min at 4° C. The pellet was then suspended in 10 mM HEPES, pH 7.4, 1 mM EDTA, 250 mM Sucrose (Buffer B), and 1× Complete EDTA-free protease inhibitor cocktail and homogenized using a potter. Membranes were flash frozen in liquid N2 and stored at −80° C.
(§2) [33P]sphingosine 1-phosphate (3000 Ci/mmol; American Radiolabeled Chemicals, Inc.) was added to test compounds in 20% DMSO by competition. Membranes and WGA SPA beads (GE Healthcare) were added to give a final volume of 100 μl in 96-well plates or 50 μl in 384-well plates with assay concentrations of 30 pM or 15 pM [33P]sphingosine 1-phosphate (respectively for S1P1 or S1P3), 50 mM HEPES, pH 7.5, 5 mM MgCl2, 100 mM NaCl, 0.4% fatty acid-free BSA, 1-5 μg/well of proteins in 96-well plates vs 0.6-1 μg/well of proteins in 384-well plates and 100 μg/well of WGA SPA beads in 96-well plates vs 75 μg/well of WGA SPA beads in 384-well plates. Binding was performed for 60 min at RT on a shaker and bound radioactivity was measured on a PerkinElmer 1450 MicroBeta counter. Triplicate samples were averaged and normalized as percentage of inhibition relative to total binding (only DMSO in well) and non specific binding (1000-fold excess of unlabeled S1P). Binding data were analyzed using the GraphPad Prism program or Genedata software.
(§3) The “potency” or the “activity” of the compounds is determined by the Ki values as evaluated in one of the above described binding assay, 96 or 384 well plates.
Target sequence in this assay (P21453 whole entry, species assumed): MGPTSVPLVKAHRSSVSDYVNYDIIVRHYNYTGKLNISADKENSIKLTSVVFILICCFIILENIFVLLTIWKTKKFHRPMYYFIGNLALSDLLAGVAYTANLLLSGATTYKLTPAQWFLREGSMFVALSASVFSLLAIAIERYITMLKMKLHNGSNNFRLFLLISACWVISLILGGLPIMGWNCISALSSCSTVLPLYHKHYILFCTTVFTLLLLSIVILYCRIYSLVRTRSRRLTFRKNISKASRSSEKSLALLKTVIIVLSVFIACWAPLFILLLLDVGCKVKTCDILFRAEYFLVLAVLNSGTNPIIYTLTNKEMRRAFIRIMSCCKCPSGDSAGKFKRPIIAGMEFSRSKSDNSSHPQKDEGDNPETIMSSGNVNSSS

In another assay the target is S1P3 (Homo sapiens, UniProt Q99500). Put plainly: Receptor binding assay, [33P]sphingosine 1-phosphate competition, membranes of CHO cells expressing S1P3. How it is done: as §1, §2, §3
Chain of S1P3 (Q99500 whole entry, species assumed): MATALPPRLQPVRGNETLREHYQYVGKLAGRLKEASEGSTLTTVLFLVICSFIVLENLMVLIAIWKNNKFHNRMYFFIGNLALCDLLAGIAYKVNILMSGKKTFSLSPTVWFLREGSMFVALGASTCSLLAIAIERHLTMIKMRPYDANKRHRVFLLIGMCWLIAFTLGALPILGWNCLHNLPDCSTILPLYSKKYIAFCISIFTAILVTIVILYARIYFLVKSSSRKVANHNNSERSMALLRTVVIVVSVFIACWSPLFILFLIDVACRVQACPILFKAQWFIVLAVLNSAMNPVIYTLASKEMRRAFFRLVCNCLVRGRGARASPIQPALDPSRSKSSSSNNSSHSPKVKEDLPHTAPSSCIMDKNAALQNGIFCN
In assay [2] the target is T1, S1P1. The assay can be described thus: S1P1 internalization assay in S1P1-U2OS cells (cell imaging). It counts as cell-based. On the set-up: host or cells: U2OS (human bone osteosarcoma epithelial cells). To be noted: U2OS cells expressing S1P1-EGFP, 384-well format. How it is done: Cellular Functional Assays: Internalization of Sphinqosine-1-phosphate Receptor 1 (S1P1) in a Human Cell Line (U2OS) in a 384-Well Format Using a Cell Imaging Analysis.
The S1P1 internalization assay was performed in 384 well plates (Corning 384 black with clear bottom 3712) using S1P1-U2OS cells from BioImage (C039A), a human epithelial cell line (Human Bone Osteosarcoma Epithelial Cells). These cells expressed the human S1P1 Receptor fused to the green fluorescent protein (EGFP). A standard CMV promoter (cytomegalovirus promoter) controls the expression of S1P1-EGFP and continuous expression was maintained by addition of geneticin to the culture medium.
S1P1 Receptor desensitization induced the internalization of the membrane-localized S1P-EGFP fusion protein to endosomes, which can be monitored by cell imaging analysis.
The cells are plated in low serum medium (Dulbecco's Modified Eagle Medium (DMEM) with Glutamax-1 and high glucose, 1% Penicillin/Streptomycin, 1% Fetal Calf Serum (FCS), 0.5 mg/ml Geneticin) overnight.
The next day, S1P1-U2OS cells are incubated in 20 μl serum free medium (DMEM with Glutamax-1 and high glucose, 0.1% of fatty-acid free Bovin Serum Albumin (BSA), 10 mM, N′-2-Hydroxyethylpiperazine-N′-2 ethanesulphonic acid (HEPES) 1M) for 2 hours at 37° C./5% CO2. The cells are then treated with 4 μl compounds/agonists (6×/3% DMSO) for a total volume of 24 μl, and plates are incubated for 1 hour at 37° C./5% CO2.
S1P1-U2OS cells are fixed with 25 μl Paraformaldehyde 8% and stained with Hoechst 33345 dye (1:1000) for 20 minutes.
They were then washed 3 times with Phosphate Buffered Saline (PBS) and plates are sealed. The internalization of the receptor S1P1-EGFP is measured on Cellomics by calculating the “spot count per object” (“object” corresponds to nuclear and “spot” corresponds to S1P1-EGFP receptor). Internalization data were observed thanks to vHCS View and analyzed using Genedata® software.
Target sequence in this assay (P21453 whole entry): as the sequence (P21453 whole entry, species assumed) above

Setting [3] is: 384 well plate, read-out: S1P1 Binding Ki [M] (384 well plate).
[4] abbreviates: 384 well plate, read-out: S1P3 Binding Ki [M] (384 well plate).
[5] abbreviates: 96 well plate, read-out: S1P1 Binding Ki [M] (96 well plate).

As usually defined, the Ki is a measure of affinity in units of concentration, obtained from inhibition or displacement. The EC50 is the concentration needed to bring the measured effect to its halfway point. The low end stands for a more potent agent, the high end for a less potent agent.

Where a name gives a salt, the structure may show the parent alone. Read-outs that look alike come from different tables or passages of the source.

For `Cc1cc(-c2nc(-c3ccc([C@H](C)N[C@H](C)C(=O)O)cc3)no2)ccc1-c1ccccc1C(F)(F)F` (racemic) [Example 25, N-[(1S)-1-(4-{5-[2-methyl-2′-(trifluoromethyl)biphenyl-4-yl]-1,2,4-oxadiazol-3-yl}phenyl)ethyl]-D-alanine and N-[(1R)-1-(4-{5-[2-methyl-2′-(trifluoromethyl)biphenyl-4-yl]-1,2,4-oxadiazol-3-yl}phenyl)ethyl]-L-alanine], the figures for the Ki on S1P1 [1] (setting [3]) and on S1P3 (setting [4]) were 2.59e-09 M and over 2e-05 M, respectively. Further, the EC50 on S1P1 [2] was 28.1 nM.
For `Cc1ccccc1-c1ccc(-c2nc(-c3ccc([C@H](C)N[C@@H](C)C(=O)O)cc3)no2)cc1C(F)(F)F` (racemic) [Example 26, N-[(1S)-1-(4-{5-[2′-methyl-2-(trifluoromethyl)biphenyl-4-yl]-1,2,4-oxadiazol-3-yl}phenyl)ethyl]-L-alanine, hydrochloride salt and N-[(1R)-1-(4-{5-[2′-methyl-2-(trifluoromethyl)biphenyl-4-yl]-1,2,4-oxadiazol-3-yl}phenyl)ethyl]-D-alanine, hydrochloride salt], in that order: 2.24e-09 M, 1.65e-06 M and 21.6 nM.
For `Cc1ccccc1-c1ccc(-c2nc(-c3ccc([C@H](C)N[C@H](C)C(=O)O)cc3)no2)cc1C(F)(F)F` (racemic) [Example 27, N-[(1S)-1-(4-{5-[2′-methyl-2-(trifluoromethyl)biphenyl-4-yl]-1,2,4-oxadiazol-3-yl}phenyl)ethyl]-D-alanine, hydrochloride salt and N-[(1R)-1-(4-{5-[2′-methyl-2-(trifluoromethyl)biphenyl-4-yl]-1,2,4-oxadiazol-3-yl}phenyl)ethyl]-L-alanine, hydrochloride salt], in that order: 2.21e-09 M, 1.33e-06 M and 7.84 nM.
Take `CCC(C(=O)O)N(C)Cc1ccc(-c2noc(-c3ccc(-c4ccccc4C)c(C(F)(F)F)c3)n2)cc1F` (stereo not shown) [Example 1, 2-[(2-fluoro-4-{5-[2′-methyl-2-(trifluoromethyl)biphenyl-4-yl]-1,2,4-oxadiazol-3-yl}benzyl)(methyl)amino]butanoic acid, hydrochloride salt]: the values for the Ki on S1P1 [1] (setting [3]) and on S1P3 (setting [4]) were 2.81e-09 M and 1.77e-06 M, respectively. In addition, at S1P1 [2], the EC50 came out at 43.3 nM.
`Cc1cc(-c2nc(-c3ccc([C@@H](C)N[C@H](C)C(=O)O)cc3)no2)ccc1-c1ccccc1C(F)F` [Example 2, N-[(1R)-1-(4-{5-[2′-(difluoromethyl)-2-methylbiphenyl-4-yl]-1,2,4-oxadiazol-3-yl}phenyl)ethyl]-D-alanine, hydrochloride salt]: the Ki on S1P1 [1] (setting [5]) is 2.8e-10 M; on S1P1 [1] (setting [3]), 1.42e-09 M; on S1P3 (setting [4]), over 2e-05 M. The compound further displayed an EC50 on S1P1 [2] of 10.3 nM.
For `COCc1cc(-c2nc(-c3ccc([C@H](C)N[C@H](C)C(=O)O)cc3)no2)ccc1-c1ccccc1C` [Example 3, N-[(1S)-1-(4-{5-[2-(methoxymethyl)-2′-methylbiphenyl-4-yl]-1,2,4-oxadiazol-3-yl}phenyl)ethyl]-D-alanine, hydrochloride salt], in that order: 3.4e-10 M, 2e-09 M, 2.59e-06 M and 8.19 nM.
Regarding `COCc1cc(-c2nc(-c3ccc([C@@H](C)N[C@H](C)C(=O)O)cc3)no2)ccc1-c1ccccc1C` [Example 4, N-[(1R)-1-(4-{5-[2-(methoxymethyl)-2′-methylbiphenyl-4-yl]-1,2,4-oxadiazol-3-yl}phenyl)ethyl]-D-alanine, hydrochloride salt], the Ki worked out at 1.45e-10 M on S1P1 [1] (setting [5]); 9.18e-10 M on S1P1 [1] (setting [3]); 2.2e-06 M at S1P3 (96 well plate, read-out: S1P3 Binding Ki [M] (96 well plate)); 8.63e-07 M on S1P3 (setting [4]). The midpoint of the response at S1P1 [2], the EC50, lay at 2 nM.
Take `COCc1cc(-c2nc(-c3ccc([C@H](C)NCC(=O)O)cc3)no2)ccc1-c1ccccc1C` [Example 5, N-[(1S)-1-(4-{5-[2-(methoxymethyl)-2′-methylbiphenyl-4-yl]-1,2,4-oxadiazol-3-yl}phenyl)ethyl]glycine, hydrochloride salt]: the Ki on S1P1 [1] (setting [3]) was 1.27e-09 M; on S1P3 (setting [4]) it was 1.23e-06 M. The compound also had an EC50 on S1P1 [2] of 4.33 nM.
In the case of `Cc1cc(-c2nc(-c3ccc([C@@H](C)N(C)CC(=O)O)cc3)no2)ccc1-c1ccccc1C(F)(F)F` [Example 35, N-methyl-N-[(1R)-1-(4-{5-[2-methyl-2′-(trifluoromethyl)biphenyl-4-yl]-1,2,4-oxadiazol-3-yl}phenyl)ethyl]glycine, hydrochloride salt], the Ki at S1P1 [1] (setting [3]) turned out to be 6.14e-09 M. This compound had an EC50 at S1P1 [2] of 211 nM.
For `COCC(c1ccc(-c2noc(-c3ccc(-c4ccccc4C)c(C(F)(F)F)c3)n2)cc1)N(C)CC(=O)O` (stereo not shown) [Example 51, 2-((2-methoxy-1-(4-(5-(2′-methyl-2-(trifluoromethyl)biphenyl-4-yl)-1,2,4-oxadiazol-3-yl)phenyl)ethyl)(methyl)amino)acetic acid], in that order: 7.52e-09 M and 29.8 nM.
In the case of `CCCC(NCc1ccc(-c2noc(-c3ccc(-c4ccccc4C)c(C(F)(F)F)c3)n2)cc1)C(=O)O` (stereo not shown) [Example 62], at S1P1 [1] (setting [3]), the Ki came out at 3.81e-09 M. On S1P1 [2], this compound gave an EC50 of 73.3 nM.
In the case of `Cc1ccccc1-c1ccc(-c2nc(-c3ccc(CN(C)C(C(=O)O)C(C)O)cc3)no2)cc1C(F)(F)F` (stereo not shown) [Example 74], on S1P1 [1] (setting [3]), the Ki worked out at 8.53e-09 M. For the same compound, at S1P1 [2], the EC50 is 106 nM.
In the same order, the values of `COCC(NCc1cccc(-c2noc(-c3ccc(-c4ccccc4C)c(C(F)(F)F)c3)n2)c1)C(=O)O` (stereo not shown) [Example 76, 3-Methoxy-2-{3-[5-(2′-methyl-2-trifluoromethyl-biphenyl-4-yl)-[1,2,4]oxadiazol-3-yl]-benzylamino}-propionic acid] are 1.5e-08 M and 133 nM.
For `Cc1ccccc1-c1ccc(-c2nc(-c3cccc(CNC(C(=O)O)C(C)O)c3)no2)cc1C(F)(F)F` (stereo not shown) [Example 77], in that order: 5.47e-09 M and 39.9 nM.
`Cc1ccccc1-c1ccc(-c2nc(-c3cccc(CN(C)C(C)(C)C(=O)O)c3)no2)cc1C(F)(F)F` [Example 83, 2-Methyl-2-(methyl-{3-[5-(2′-methyl-2-trifluoromethyl-biphenyl-4-yl)-[1,2,4]oxadiazol-3-yl]-benzyl}-amino)-propionic acid]: the Ki at S1P1 [1] (setting [3]) came to 3.56e-09 M. The compound also showed an EC50 at S1P1 [2] of 75.5 nM.
For the compound `Cc1ccccc1-c1ccc(-c2nc(-c3cccc(CN(C)C(C)(CO)C(=O)O)c3)no2)cc1C(F)(F)F` (stereo not shown) [Example 84], the Ki at S1P1 [1] (setting [3]) stood at 4.25e-09 M. Also, the EC50 at S1P1 [2] was determined as 84.6 nM.
For `CCN(Cc1cccc(-c2noc(-c3ccc(-c4ccccc4C)c(C(F)(F)F)c3)n2)c1)C(C)(C)C(=O)O` [Example 88, 2-(Ethyl-{3-[5-(2′-methyl-2-trifluoromethyl-biphenyl-4-yl)-[1,2,4]oxadiazol-3-yl]-benzyl}-amino)-2-methyl-propionic acid], in that order: 2.85e-09 M and 69.7 nM.
